# According to patent publication US9708608B2, “Methods for producing a population of pancreatic beta-cells” (priority 2012, dated 2017):
# What was measured:
# insulin+ cells = experiment: Endocrine cell marker expression of insulin+ cells in GABA-treated pancreata (immunochemistry); type: in vivo, mouse; details: GABA-treated islets versus non-treated controls; Pdx1, Nkx6.1, NeuroD1, Glut 2, PC1/3, Pax6
# Procedure: (§1) Immunohistochemistry: Tissues were fixed in 4% PFA for 30 min at 4° C., embedded in paraffin and 8 μm sections applied to slides. These sections were assayed as described previously [Collombat et al., 2003]. The primary antibodies used were the following: guinea pig polyclonal anti-insulin (1/500-Linco), anti-glucagon (1/500-Milipore), mouse monoclonal anti-glucagon (1/500-Sigma), anti-BrdU (1/40-Roche), anti-E-cadherin (1/200-BD Transduction Lab), rat anti-somatostatin (1/250-Millipore), rabbit anti-Glut2 (1/5000), anti-PC1/3 (1/500-Milipore), anti-Nkx6.1 (1/3000-Novonordisk), anti-Pdx1 (1/1000), anti-NeuroD1 (1/200-Milipore), anti-Ngn3 (1/500-Abgent), anti-β-galactosidase (1/10000-Milipore), chicken anti vimentin (1/5000-Milipore), goat anti-osteopontin (1/200-R&D Systems). The secondary antibodies (1/1000-Molecular Probes) used were: 594- and 488-alexa anti-mouse; 594- and 488-alexa anti-rabbit; 594- and 488-alexa anti-guinea pig; 488-alexa anti-rat; 594- and 488-alexa anti-goat; 594- and 488-alexa anti-chicken. Pictures were processed using ZEISS Axioimager Z1 and LEICA DM 6000 B. For quantification purpose, stained cells were counted manually on every tenth section.
# To ascertain the identity of the insulin^+ cells in GABA-treated pancreata, we assayed the expression of several endocrine cell marker genes by immunochemistry compared to non-treated controls. […]
# [1] = Life expectancy, basal glycemia and general health of GABA-treated WT mice
# [2] = tested on: pancreatic cells of WT mice; experiment: BrdU cell proliferation in GABA-treated WT mice; type: in vivo, mouse
# Text: Thus, to gain further insight into the mechanisms underlying these processes, we administered the thymidine analogue 5-bromo-2′-deoxyuridine (BrdU) to detect actively replicating cells. […] In addition, glucagon^+ and somatostatin^+ cells were not uniformly distributed within the islet mantle but rather found clustered at a pole of the islet, adjacent to neighboring ducts, unlike in controls where the distribution of the non-β-cells were found scattered in the mantle of the islets.
# NOD mice = NOD mice (Soltani et al., 2011; Tian et al., 2011); cited from earlier work
# Ngn3 = Ngn3 immunohistochemistry in GABA-treated pancreata; type: in vivo, mouse; details: no Ngn3 expression in control animals
# Procedure: as §1, with “section. […]” for “section.”
# WT mice [3] = experiment: Glucose tolerance test in GABA- and STZ-treated WT mice; type: in vivo, mouse; details: surviving GABA-treated mice, 85 days post-streptozotocin, versus controls not treated with GABA or streptozotocin
# Text: (§2) FIG. 4: The β-like cell mass can be regenerated following streptozotocin treatment in GABA-treated mice, the neo-generated insulin^+ cells being functional. […] Such a recovery is associated with a clear regeneration of their β-cell mass monitored 5, 10, 25 and 45 days post-streptozotocin administration by immunochemistry. 85 days post-streptozotocin injection, GABA- and STZ-treated WT and non-treated controls were subjected to a glucose tolerance test (GTT) (B).
# mice = details: streptozotocin-induced diabetes in mice (Soltani et al., 2011; Gomez et al., 2007); cited from earlier work
# WT mice [4] = experiment: Streptozotocin-mediated diabetes in WT mice treated with GABA; type: in vivo, mouse
# Text: as §2
# Induction of streptozotocin-mediated diabetes: To induce hyperglycaemia, STZ (Sigma) was dissolved in 0.1M sodium citrate buffer (pH 4.5), and a single dose was administered intraperitoneally (100 mg/kg) within 10 min of dissolution. Diabetes progression was assessed by the monitoring of blood glucose levels of the mice.
# A functional β-cell mass can be regenerated following chemically-induced diabetes in GABA-treated animals: To determine whether neo-formed insulin^+ cells could functionally replace endogenous β-cells, we injected WT animals with a high dose of streptozotocin to obliterate the endogenous β-cell mass.
# [5] = tested on: Arx mRNA in α-TC1-6 cells; experiment: Relative Arx mRNA expression in α-TC1-6 cells treated with GABA; type: cell-based; details: α-TC1-6 cell line, increasing GABA concentrations, different periods of time, versus non-treated cells
# Procedure: Relative Arx mRNA expression was measured in the different conditions.
# RNA Analysis: RNA was isolated (RNEASY® (RNA isolation kit), Qiagen) and cDNA synthesis ([…]® (cDNA synthesis kit) choice system, Invitrogen) was performed according to the manufacturer's instructions. Quantitative RT-PCR was carried out using validated primers (Qiagen) and the […]® SYBR Green RT-PCR Kit (Qiagen) following manufacturer's instructions. PCR reactions and detection were performed on a […]® ep realplex cycler using GAPDH and HPRT1 as internal controls for normalization purposes.
# [6] = tested on: glucagon-expressing cells; experiment: β-galactosidase lineage tracing in Glu-Cre::Rosa26-lox-β-gal mice treated with streptozotocin and GABA; type: in vivo, mouse; details: isolated 40 days post-streptozotocin injection, daily GABA
# Procedure: β-galactosidase-based lineage-tracing experiments: Pancreatic tissues were isolated and fixed for 30 min at 4° C. in a solution containing 1% formaldehyde, 0.2% glutaraldehyde, 0.02% NP40. The tissues were dehydrated in 25% sucrose overnight at 4° C. Prior to sectioning, tissues were embedded in freezing medium. For β-galactosidase activity assessment, the tissues were washed in PBS and then incubated overnight in staining solution (500 mM K3Fe(CN)6, 250 mM K4Fe(CN)6, 0.5M MgCl2, 40 mg/ml X-gal in DMF).
# Several examples, from unrelated islets, of cells co-expressing insulin with glucagon were noted. […] To validate this hypothesis, we used Glu-Cre::Rosa26-lox-β-gal mice. […] It is important to note that such double-positive cells (in lesser proportion) are also observed in GABA-treated Glu-Cre::Rosa26-lox-β-gal animals not subjected to streptozotocin administration.
# [7] = tested on: pancreatic islets of WT mice; experiment: Quantification of islets and hormone-expressing cells in GABA-treated WT mice (immunohistochemistry, pixel counting); type: in vivo, mouse; details: versus aged-matched controls; for Glucagon+ cell count / Somatostatin+ cell count / Insulin+ cell count: pixel counting; for Insulin+ cell count / Islet count / Islet size: mean ± SEM; for Islet count / Islet size: treatment age 2.6 m
# Procedure: as §1
# Cell counts: Quantitative analyses were performed by the counting of colored pixels on (immuno-) stained sections of pancreas using the Photoshop software. Specifically, every 10th section was processed using the same settings for all animals and genotypes.
compound,measurement,setting,value
"NCCCC(=O)O [GABA, gamma-amino butyric acid]",Expression of β-cell markers in insulin-expressing cells,insulin+ cells,uniformly expressed the bona fide β-cell markers
same,"Viability, health and fertility of treated animals",[1]; GABA-treated WT mice,"viable, healthy and fertile"
same,Life expectancy,"[1]; WT mice, GABA treatment duration 1 month, treatment age 2.6 m",normal
same,Life expectancy,"[1]; WT mice, GABA treatment duration 2 months, treatment age 2.6 m",normal
same,Life expectancy,"[1]; WT mice, GABA treatment duration 3 months, treatment age 2.6 m",normal
same,Basal glycemia,"[1]; WT mice, GABA treatment duration 3 months, treatment age 2.6 m, monitored weekly",142
same,Location of BrdU+ proliferating cells,"[2]; GABA-treated WT pancreata, BrdU for 10 days",predominantly located in the ductal lining and in the ductal epithelium
same,β-cell proliferation,"[2]; GABA-treated mice, relative to the size of the islets, data not shown",lack of a significant increase in β-cell proliferation
same,Diabetes reversal,NOD mice,reverse diabetes
same,Ngn3 expression,Ngn3,reactivation of Ngn3 in the ductal environment
same,Response to glucose challenge,WT mice [3],improved response with a lower raise in glycemia and a faster return to euglycemia
same,Blood glucose levels,mice,decrease blood glucose levels
same,Regeneration of insulin+ cells after β-cell loss,"WT mice [4]; GABA-treated WT animals after streptozotocin, immunohistochemistry at different time points",progressively regenerated
same,Glycemia course after streptozotocin,"WT mice [4]; WT mice, high dose STZ, GABA started at approximately 300 mg/dl, water controls died from extreme hyperglycemia",steady recovery
same,Sensitivity to another round of streptozotocin,"WT mice [4]; surviving GABA-treated mice, data not shown",not sensitive to STZ
same,Arx mRNA expression,[5],decrease in Arx mRNA expression
same,Insulin and β-galactosidase co-labelling (conversion of glucagon-expressing cells),[6],a majority of cells positive for insulin and β-galactosidase
same,Glucagon+ cell count,[7]; GABA 1 month,x 0.97
same,Somatostatin+ cell count,[7]; GABA 1 month,x 1.43
same,Insulin+ cell count,[7]; GABA 1 month,x 1.04 ± 0.15
same,Islet count,[7]; GABA 1 month,x 2.19 ± 0.04
same,Islet size,[7]; GABA 1 month,x 1.04 ± 0.15
same,Glucagon+ cell count,[7]; GABA 2 months,x 1.91
same,Somatostatin+ cell count,[7]; GABA 2 months,x 2.39
same,Insulin+ cell count,[7]; GABA 2 months,x 2.15 ± 0.22
same,Islet count,[7]; GABA 2 months,x 1.86 ± 0.05
same,Islet size,[7]; GABA 2 months,x 2.15 ± 0.22
same,Glucagon+ cell count,[7]; GABA 3 months,x 3.02
same,Somatostatin+ cell count,[7]; GABA 3 months,x 2.84
same,Insulin+ cell count,[7]; GABA 3 months,x 3.49 ± 0.11
same,Islet count,[7]; GABA 3 months,x 1.80 ± 0.03
same,Islet size,[7]; GABA 3 months,x 3.49 ± 0.11
